Data from ChEMBL document CHEMBL3301361, “Experimental in vitro DMPK and physicochemical data on a set of publicly disclosed compounds”.
In brackets after ≈: the same amount, converted by molar mass.

Assay: physchem
Conditions: pH 7.4 buffer

Row | SMILES | solubility thermodynamic [µM]
1 | CC(=O)n1c2ccccc2c2cc(NC(=O)CCc3ccncc3)ccc21 | 2.1 (≈ 0.751 µg/mL)
2 | CC(=O)N1CCC(n2cc(-c3cnc(N)c(-c4nc5ccccc5o4)c3)cn2)CC1 | 1.7 (≈ 0.684 µg/mL)
3 | CN(c1ccnc(Nc2cc(N3CCOCC3)nc(N3CCOCC3)c2)n1)c1cccc2[nH]ncc12 | 0.8 (≈ 0.39 µg/mL)
4 | Cc1nc(O)c2cc(-c3ccccc3)sc2n1 | 1.8 (≈ 0.436 µg/mL)
5 | Cc1ccnc(NC(c2ccccn2)c2c(C)[nH]c3ccccc23)c1 (stereo not drawn) | 1.4 (≈ 0.46 µg/mL)
6 | Cc1ccccc1Oc1cc(-n2ncc(Cl)c(Cl)c2=O)ncn1 | 1 (≈ 0.349 µg/mL)
7 | Clc1ccc2c(c1)Nc1ccccc1S2 | 0.7 (≈ 0.164 µg/mL)
8 | O=S(=O)(c1ccc(F)cc1)N1CCCN(c2nccc(C(F)(F)F)n2)CC1 | 0.9 (≈ 0.364 µg/mL)
9 | CCOc1ccc(NCC(=O)c2ccc(C)cc2)cc1 | 1.2 (≈ 0.323 µg/mL)
10 | Cc1onc(-c2ccccc2)c1C(=O)OCC(=O)c1ccccc1 | 2 (≈ 0.643 µg/mL)
11 | CC(C)Cc1nc(-c2ccccc2)c(-c2ccc(CN3CCC(n4c(=O)[nH]c5ccccc54)CC3)cc2)nc1O | 1.6 (≈ 0.854 µg/mL)
12 | Cc1ccc(Oc2ccc(C(=O)N(C)Cc3ccncc3)cc2)cc1 | 1.9 (≈ 0.632 µg/mL)
13 | COc1cc(N2CCN(C(=O)[C@H](C)O)CC2)ccc1Nc1ncc(Cl)c(-c2cnc3ccccn23)n1 | 1.5 (≈ 0.762 µg/mL)
14 | COc1cc(N2CCN(C(C)=O)CC2)ccc1Nc1ncc(Cl)c(-c2cnc3ccc(F)cn23)n1 | 1.3 (≈ 0.645 µg/mL)
15 | Clc1cccc(CNc2[nH]nc3cccc(Oc4ccccc4)c23)c1 | 1.3 (≈ 0.455 µg/mL)
16 | Cc1ccc(C(=O)C(=O)c2ccc(C)cc2)cc1 | 2.1 (≈ 0.5 µg/mL)
17 | COc1cc2ncnc(Oc3ccc(CC(=O)Nc4ccc(N(C)C)cn4)cc3)c2cc1OC | 1.6 (≈ 0.735 µg/mL)

Row | SMILES | solubility thermodynamic [µM]
18 | CN(C(=O)Cc1ccc(S(C)(=O)=O)cc1)[C@@H]1CCN(Cc2nc3cc(F)ccc3s2)C[C@@H]1F | 1.8 (≈ 0.888 µg/mL)
19 | COc1cc(Oc2ncnc3cc(OC)c(OC)cc23)ccc1CC(=O)Nc1cn(C)nc1C | 1.8 (≈ 0.834 µg/mL)
20 | COc1ccc2c(Oc3ccc(CC(=O)Nc4cc(C)cc(CN(C)C)c4)c(OC)c3)ccnc2c1 | 1.8 (≈ 0.874 µg/mL)
21 | CC(C)(C)OC(=O)N1CCN(c2ccc(OCc3ccc(S(C)(=O)=O)cc3)cn2)CC1 | 1 (≈ 0.448 µg/mL)
22 | Cc1c(Cl)c(C(F)(F)F)nn1CC(=O)N1CCN(c2ccc(F)cc2)CC1 | 1.9 (≈ 0.769 µg/mL)
23 | c1ccc(NCc2ccc(CNc3ccccn3)cc2)nc1 | 0.9 (≈ 0.261 µg/mL)
24 | Cc1cc(C)cc(-c2[nH]c3sc(C(C)(C)C(=O)N4C5CCC4CC5)cc3c2CCN2CCC(CC(=O)N3CCOCC3)CC2)c1 | 1.9 (≈ 1.2 µg/mL)
25 | CNC(=O)[C@@H](C)Oc1cccc2ncnc(Nc3ccc4c(cnn4Cc4nccs4)c3)c12 | 1.3 (≈ 0.597 µg/mL)
26 | Clc1cc(Nc2ncnc3[nH]nc(OCCN4CCOCC4)c23)ccc1OCc1ccccn1 | 2 (≈ 0.964 µg/mL)
27 | Cc1cc(C)cc(-c2[nH]c3ccc(C(C)(C)C(=O)N4C5CCC4CC5)cc3c2CCN(C)CCCCc2ccncc2)c1 | 0.9 (≈ 0.519 µg/mL)
28 | COCCNS(=O)(=O)c1ccc(Nc2nccc(-c3cnc4ccccn34)n2)cc1 | 0.7 (≈ 0.297 µg/mL)
29 | CN(C)C(=O)[C@H](Cc1ccccc1)NC(=O)c1cc2cc(Br)ccc2[nH]1 | 1 (≈ 0.414 µg/mL)
30 | COc1cc2c(Nc3ccc(Cl)cc3F)ncnc2cc1OCCn1ccnn1 | 1.5 (≈ 0.622 µg/mL)
31 | CNC(=O)[C@@H](C)Oc1cccc2ncnc(Nc3ccc(OCc4ccccn4)c(Cl)c3)c12 | 1.6 (≈ 0.742 µg/mL)
32 | NC(=O)Nc1sc(-c2ccccc2)cc1C(=O)NCc1ccccc1 | 0.8 (≈ 0.281 µg/mL)
33 | CC#CC(=O)Nc1ccc2ncnc(Nc3cccc(Br)c3)c2c1 | 0.8 (≈ 0.305 µg/mL)

Further lines, results first:

Row | solubility thermodynamic [µM] | SMILES
34 | 1.8 (≈ 0.73 µg/mL) | C[C@@H]1CN(c2nc(N3CCOCC3)c3ccc(-c4ccccc4)nc3n2)C[C@H](C)O1
35 | 0.8 (≈ 0.304 µg/mL) | O=C(c1ccc(F)cc1)C1CCN(C(=O)c2ccc(Cl)c(Cl)c2)CC1
36 | 1.9 (≈ 0.641 µg/mL) | Cc1cc2n[nH]c(=O)n2c2cc(-c3ccc([S+](C)[O-])cc3)ccc12 (stereo not drawn)
37 | 1.1 (≈ 0.308 µg/mL) | O=C(Cc1ccccc1)Nc1ccc(N2CCCC2)cc1
38 | 1.9 (≈ 0.565 µg/mL) | c1ccc(-c2nc(-c3ccccc3)c(-c3ccccc3)o2)cc1
39 | 0.7 (≈ 0.312 µg/mL) | COc1ccc(N(C)C(=O)c2ccc3nc(-c4ccccc4)c(-c4ccccc4)nc3c2)cc1
40 | 0.9 (≈ 0.328 µg/mL) | O=S(=O)(CC(c1ccccc1)N1CCCCC1)c1ccc(Cl)cc1 (stereo not drawn)
41 | 1.7 (≈ 0.79 µg/mL) | COc1cc(OC2CN(C(C)=O)C2)ccc1Nc1ncc(Cl)c(-c2cnc3ccccn23)n1
42 | 1.9 (≈ 0.86 µg/mL) | COc1cc2ncnc(Nc3cc(NC(=O)c4ccccc4)c(Cl)cc3F)c2cc1OC
43 | 2.1 (≈ 0.761 µg/mL) | Cc1ccc(C(=O)C2CCN(S(=O)(=O)c3c(C)noc3C)CC2)cc1
44 | 2 (≈ 0.845 µg/mL) | COc1cc2ncnc(Nc3cnn(CC(=O)Nc4cccc(F)c4)c3)c2cc1OC
45 | 2 (≈ 0.891 µg/mL) | COc1cccc(NC(=O)Cc2ccc(Oc3ncnc4cc(OC)c(OC)cc34)cc2)c1
46 | 1.5 (≈ 0.598 µg/mL) | CS(=O)(=O)Cc1cc(N2CC3CCC(C2)O3)nc(-c2ccc3[nH]ccc3c2)n1
47 | 2.1 (≈ 0.875 µg/mL) | COc1cc(OC2CCN(C)CC2)c2c(Nc3ccc(F)c(Cl)c3)ncnc2c1
48 | 1 (≈ 0.401 µg/mL) | O=C(Nc1ccc(N2CCOCC2)nc1)c1nnc(Nc2ccc(Cl)cc2)o1
49 | 1.6 (≈ 0.469 µg/mL) | CCCCOc1ccc(-c2cc(=O)c3ccccc3[nH]2)cc1
50 | 1 (≈ 0.446 µg/mL) | COc1cc2ncnc(Nc3cccc(Cl)c3F)c2cc1CN(C(C)C)[C@@H](C)C(N)=O
51 | 0.9 (≈ 0.429 µg/mL) | C[C@@H]1CN(c2ncc(OCc3ccc(S(C)(=O)=O)cc3)cn2)[C@@H](C)CN1C(=O)OC(C)(C)C

Row | solubility thermodynamic [µM] | SMILES
52 | 1.7 (≈ 0.772 µg/mL) | Cc1cc(CNc2ncc(Br)c(Nc3cc(CCc4ccccc4)[nH]n3)n2)on1
53 | 0.9 (≈ 0.264 µg/mL) | COc1ccccc1NC(=O)c1cc2ccccc2cc1O
54 | 0.9 (≈ 0.378 µg/mL) | CN(C)C(=O)[C@H](Cc1ccccc1)NC(=O)c1cc2cc(Br)sc2[nH]1
55 | 1.5 (≈ 0.564 µg/mL) | CN(C)C(=O)[C@H](Cc1ccccc1)NC(=O)c1cc2cc(Cl)sc2[nH]1
56 | 0.7 (≈ 0.244 µg/mL) | CCN1C(=O)C(C)(C)c2cc3[nH]c4c(c3cc21)CCCc1c-4n[nH]c1C
57 | 1.1 (≈ 0.385 µg/mL) | O=C(CC(c1ccccc1)S(=O)(=O)c1ccccc1)c1ccccc1 (stereo not drawn)
58 | 1.2 (≈ 0.576 µg/mL) | CC(C)CC(C(=O)NCC(=O)CNS(=O)(=O)c1ccccn1)c1cccc(-c2ccccc2)c1 (stereo not drawn)
59 | 1.8 (≈ 0.797 µg/mL) | CS(=O)(=O)C1(c2cc(N3CCOCC3)nc(-c3cccc4[nH]ccc34)n2)CCOCC1
60 | 1.5 (≈ 0.64 µg/mL) | CC(C)S(=O)(=O)C1(c2cc(N3CCOCC3)nc(-c3cccc4[nH]ccc34)n2)CC1
61 | 0.6 (≈ 0.305 µg/mL) | COc1cc2c(Nc3ccc(Cc4ccccc4)cc3)c(C#N)cnc2cc1OCCCN1CCOCC1
62 | 1.4 (≈ 0.556 µg/mL) | COc1cc2ncc(C#N)c(Nc3ccc(Oc4ccccc4)cc3)c2cc1OC
63 | 1.8 (≈ 1.02 µg/mL) | COc1cc2c(Nc3ncc(CC(=O)Nc4cccc(F)c4)s3)ncnc2cc1OCCCN1CCN(C)CC1
64 | 1.7 (≈ 1.02 µg/mL) | Cc1cc(C)cc(-c2[nH]c3sc(C(C)(C)C(=O)N4C5CCC4CC5)cc3c2CN2CCN(CC(=O)N3CCCC3)CC2)c1
65 | 0.9 (≈ 0.46 µg/mL) | COc1cc2c(Nc3ccc(Oc4ccccc4)cc3)c(C#N)cnc2cc1OCCCN1CCOCC1
66 | 1.9 (≈ 0.841 µg/mL) | CCOC(=O)C1CCN(c2ncnc(Oc3ccc(CCC(C)=O)cc3)c2[N+](=O)[O-])CC1
67 | 1.5 (≈ 0.486 µg/mL) | NC(=O)c1ccccc1NC(=O)Nc1ccc(Cl)c(Cl)c1
68 | 0.9 (≈ 0.245 µg/mL) | c1ccc(-c2cnn3cc(-c4ccncc4)cnc23)cc1
